Test results as given in paper PMC5608556, “Photo-affinity labelling and biochemical analyses identify the target of trypanocidal simplified natural product analogues” (PLoS Neglected Tropical Diseases, 2017).

Columns and labels:
[1] = molecular target: T1, FoF1-ATP synthase F1 β-subunit (GFP-PTP tagged) (Trypanosoma brucei brucei, UniProt Q9GPE9); experiment: In vivo photo-affinity labelling of GFP-PTP-tagged F1 β-subunit, Cy5.5 detection; format: binding; settings: 50 μM, in vivo pulse-chase, UV 365 nm
T1 construct: The endogenous expression produces tagged protein at physiological levels, allowing it to be trafficked and form complexes in the same way as untagged endogenously expressed protein; expressed in transfected cells; host or cells: procyclic-form T. brucei strain 29-13, stably transfected with BsmI-linearised pC-F1β-GFP-PTP (recombination into the endogenous gene)
T1 sequence (Q9GPE9 22-519): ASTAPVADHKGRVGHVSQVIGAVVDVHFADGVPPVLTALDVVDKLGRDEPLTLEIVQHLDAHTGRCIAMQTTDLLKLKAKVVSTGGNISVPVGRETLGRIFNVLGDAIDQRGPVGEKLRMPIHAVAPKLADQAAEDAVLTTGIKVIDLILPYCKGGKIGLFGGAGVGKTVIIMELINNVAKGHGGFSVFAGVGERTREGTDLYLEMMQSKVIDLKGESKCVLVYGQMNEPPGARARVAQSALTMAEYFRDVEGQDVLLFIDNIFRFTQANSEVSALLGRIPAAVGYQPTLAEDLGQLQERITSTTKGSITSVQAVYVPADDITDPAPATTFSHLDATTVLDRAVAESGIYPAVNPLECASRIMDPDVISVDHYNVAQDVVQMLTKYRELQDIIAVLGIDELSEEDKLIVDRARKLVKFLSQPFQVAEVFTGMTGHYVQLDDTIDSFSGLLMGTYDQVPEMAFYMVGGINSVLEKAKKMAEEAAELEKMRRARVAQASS
Procedure: (§1) Fig 7 B-THP-Ts bind to C-terminal GFP-PTP tagged F1 α- and β- subunits. (A) Stably transfected PF T. brucei cells endogenously-expressing F1 α-GFP-PTP or F1 β-GFP-PTP were loaded with MitoTracker Red CMXros (red) and DAPI (blue) and imaged microscopically to determine localisation of GFP-PTP-tagged protein. […] (B) Following in vivo photo-affinity labelling with 50 μM compound 3 or compound 1 (negative control), GFP-PTP-tagged F1 α- and β-subunits were affinity purified and Cy5.5 clicked on. Proteins were separated by SDS-PAGE and a western blot was performed with mouse anti-GFP / anti-mouse-DyLight 800. […]
(§2) Pulse-chase in vivo photo-affinity labelling with bi-functional compound 3 (and lead compound 1 as negative control) was performed on cells from both cell lines expressing GFP-PTP-tagged F1 α- or β-subunits. Tagged subunits were immobilised on IgG-sepharose beads, purified, and Cy5.5 fluorescent reporter clicked on, and proteins were detected by western blotting (Fig 7B). […] In trypanosomatids (but not in other organisms) the native α-subunit is expressed as a 63 KDa protein which is then cleaved by an unknown protease to 20 KDa N-terminal and 43 KDa C-terminal domains, both of which remain associated with the FoF1-ATP synthase complex. […]

[2] = molecular target: T2, FoF1-ATP synthase F1 α-subunit (GFP-PTP tagged) (Trypanosoma brucei brucei, UniProt Q9GS23); experiment: In vivo photo-affinity labelling of GFP-PTP-tagged F1 α-subunit, Cy5.5 detection; format: binding; settings: 50 μM, in vivo pulse-chase, UV 365 nm
T2 construct: expressed in transfected cells; host or cells: procyclic-form T. brucei strain 29-13, stably transfected with MfeI-linearised pC-F1α-GFP-PTP (recombination into the endogenous gene)
T2 sequence (Q9GS23 160-584): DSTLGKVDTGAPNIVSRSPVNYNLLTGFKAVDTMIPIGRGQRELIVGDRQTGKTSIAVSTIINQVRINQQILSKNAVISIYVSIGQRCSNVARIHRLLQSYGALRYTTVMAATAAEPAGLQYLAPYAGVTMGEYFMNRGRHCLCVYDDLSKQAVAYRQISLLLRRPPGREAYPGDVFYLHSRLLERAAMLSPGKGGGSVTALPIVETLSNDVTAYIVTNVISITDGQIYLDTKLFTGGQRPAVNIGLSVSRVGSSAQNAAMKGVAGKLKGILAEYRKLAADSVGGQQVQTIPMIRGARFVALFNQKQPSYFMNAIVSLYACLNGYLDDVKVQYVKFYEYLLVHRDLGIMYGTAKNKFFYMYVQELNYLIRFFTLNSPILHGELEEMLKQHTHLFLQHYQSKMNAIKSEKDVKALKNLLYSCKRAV
Procedure: as §1, §2

C#CCNC(=O)CCC[C@H]1CC2(C[C@@H](Cn3cc([C@@H]4CCC[C@H](CCCCOCc5ccccc5)O4)nn3)O1)N=N2 [Compound 3]
UV-conjugation (Cy5.5 labelling at 700 nm) to F1 β-GFP-PTP [1]: can UV-conjugate | UV-conjugation (Cy5.5 labelling at 700 nm) to F1 α-GFP-PTP [2]: can UV-conjugate
